According to article PMC7156458, “Synthetic biology based construction of biological activity-related library of fungal decalin-containing diterpenoid pyrones” (Nature Communications, 2020):

Biological target: Aβ42 (Homo sapiens, UniProt P05067)
Experiment: Th-T (thioflavin-T) assay of Aβ42 aggregation
Format: biochemical

Sequence of Aβ42 (P05067 672-713): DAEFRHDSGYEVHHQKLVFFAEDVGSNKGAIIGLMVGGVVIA

C=C1CCC2C(C)(CCC=C(C)C)C(O)CCC2(C)C1Cc1c(OC)oc(C)c(C(=O)OC)c1=O (stereo not drawn) [Compound 14]
Fig. 7a Th-T reading, mean of three wells (column suffix _20, reading M101): 1.75 | Fig. 7a Th-T reading, mean of three wells (column suffix _20, reading M102): 1.725 | Fig. 7a Th-T reading, mean of three wells (column suffix _20, reading M103): 1.692 | Fig. 7a Th-T reading, mean of three wells (column suffix _20, reading M104): 1.726 | Fig. 7a Th-T reading, mean of three wells (column suffix _20, reading M105): 1.714 | Fig. 7a Th-T reading, mean of three wells (column suffix _20, reading M106): 1.718 | Th-T fluorescence, mean of three wells (Fig. 7a) (column suffix _50, measurement M19): 0.5495 | Th-T fluorescence, mean of three wells (Fig. 7a) (column suffix _50, measurement M20): 0.5788 | Th-T fluorescence, mean of three wells (Fig. 7a) (column suffix _50, measurement M21): 0.6066 | Th-T fluorescence, mean of three wells (Fig. 7a) (column suffix _50, measurement M22): 0.6351 | Th-T fluorescence, mean of three wells (Fig. 7a) (column suffix _50, measurement M23): 0.669 | Th-T fluorescence, mean of three wells (Fig. 7a) (column suffix _50, measurement M24): 0.7075 | Th-T fluorescence, mean of three wells (Fig. 7a) (column suffix _50, measurement M25): 0.7535 | Th-T fluorescence, mean of three wells (Fig. 7a) (column suffix _50, measurement M26): 0.8076 | Th-T fluorescence, mean of three wells (Fig. 7a) (column suffix _50, measurement M27): 0.8688 | Th-T fluorescence, mean of three wells (Fig. 7a) (column suffix _50, measurement M28): 0.9376 | Th-T fluorescence, mean of three wells (Fig. 7a) (column suffix _50, measurement M29): 1.02 | Th-T assay signal, mean of three wells (Fig. 7a) (column suffix _50, reading M1): 0.5105 | Th-T assay signal, mean of three wells (Fig. 7a) (column suffix _50, reading M2): 0.462 | Th-T assay signal, mean of three wells (Fig. 7a) (column suffix _50, reading M3): 0.4558 | Th-T assay signal, mean of three wells (Fig. 7a) (column suffix _50, reading M4): 0.4485 | Th-T assay signal, mean of three wells (Fig. 7a) (column suffix _50, reading M5): 0.4526 | Th-T assay signal, mean of three wells (Fig. 7a) (column suffix _50, reading M6): 0.449 | Th-T assay signal, mean of three wells (Fig. 7a) (column suffix _50, reading M7): 0.4479 | Th-T assay signal, mean of three wells (Fig. 7a) (column suffix _50, reading M8): 0.4517 | Th-T assay signal, mean of three wells (Fig. 7a) (column suffix _50, reading M9): 0.4533 | Th-T assay signal, mean of three wells (Fig. 7a) (column suffix _50, reading M10): 0.4553 | Th-T assay signal, mean of three wells (Fig. 7a) (column suffix _50, reading M11): 0.4593 | Th-T assay signal, mean of three wells (Fig. 7a) (column suffix _50, reading M12): 0.4664 | Th-T assay signal, mean of three wells (Fig. 7a) (column suffix _50, reading M13): 0.4713 | Th-T assay signal, mean of three wells (Fig. 7a) (column suffix _50, reading M14): 0.4784 | Th-T assay signal, mean of three wells (Fig. 7a) (column suffix _50, reading M15): 0.4927 | Th-T assay signal, mean of three wells (Fig. 7a) (column suffix _50, reading M16): 0.5 | Th-T assay signal, mean of three wells (Fig. 7a) (column suffix _50, reading M17): 0.5148 | Th-T assay signal, mean of three wells (Fig. 7a) (column suffix _50, reading M18): 0.5358 | Fig. 7a Th-T reading, mean of three wells (column suffix _50, reading M85): 2.033 | Fig. 7a Th-T reading, mean of three wells (column suffix _50, reading M86): 1.994 | Fig. 7a Th-T reading, mean of three wells (column suffix _50, reading M87): 1.943 | Fig. 7a Th-T reading, mean of three wells (column suffix _50, reading M88): 1.897 | Fig. 7a Th-T reading, mean of three wells (column suffix _50, reading M89): 1.8491 | Fig. 7a Th-T reading, mean of three wells (column suffix _50, reading M90): 1.8142 | Fig. 7a Th-T reading, mean of three wells (column suffix _50, reading M91): 1.746 | Fig. 7a Th-T reading, mean of three wells (column suffix _50, reading M92): 1.726 | Fig. 7a Th-T reading, mean of three wells (column suffix _50, reading M93): 1.698 | Fig. 7a Th-T reading, mean of three wells (column suffix _50, reading M94): 1.676 | Fig. 7a Th-T reading, mean of three wells (column suffix _50, reading M95): 1.616 | Fig. 7a Th-T reading, mean of three wells (column suffix _50, reading M96): 1.587 | Fig. 7a Th-T reading, mean of three wells (column suffix _50, reading M97): 1.553 | Fig. 7a Th-T reading, mean of three wells (column suffix _50, reading M98): 1.5408 | Fig. 7a Th-T reading, mean of three wells (column suffix _50, reading M99): 1.482 | Fig. 7a Th-T reading, mean of three wells (column suffix _50, reading M100): 1.465 | Fig. 7a Th-T reading, mean of three wells (column suffix _50, reading M101): 1.408 | Fig. 7a Th-T reading, mean of three wells (column suffix _50, reading M102): 1.3987 | Fig. 7a Th-T reading, mean of three wells (column suffix _50, reading M103): 1.372 | Fig. 7a Th-T reading, mean of three wells (column suffix _50, reading M104): 1.353 | Fig. 7a Th-T reading, mean of three wells (column suffix _50, reading M105): 1.325 | Fig. 7a Th-T reading, mean of three wells (column suffix _50, reading M106): 1.281 | Th-T fluorescence, mean of three wells (compound at 10, reading M41 of time course): 2.4889 | Th-T fluorescence, mean of three wells (compound at 10, reading M42 of time course): 2.504 | Th-T fluorescence, mean of three wells (compound at 10, reading M43 of time course): 2.483 | Th-T fluorescence, mean of three wells (compound at 10, reading M44 of time course): 2.485 | Th-T fluorescence, mean of three wells (compound at 10, reading M45 of time course): 2.494 | Th-T fluorescence, mean of three wells (compound at 10, reading M46 of time course): 2.517 | Th-T fluorescence, mean of three wells (compound at 10, reading M47 of time course): 2.535 | Th-T fluorescence, mean of three wells (compound at 10, reading M48 of time course): 2.517 | Th-T fluorescence, mean of three wells (compound at 10, reading M49 of time course): 2.512 | Th-T fluorescence, mean of three wells (compound at 10, reading M50 of time course): 2.53 | Th-T fluorescence, mean of three wells (compound at 10, reading M51 of time course): 2.541 | Th-T fluorescence, mean of three wells (compound at 10, reading M52 of time course): 2.557 | Th-T fluorescence, mean of three wells (compound at 10, reading M53 of time course): 2.545 | Th-T fluorescence, mean of three wells (compound at 10, reading M54 of time course): 2.546 | Th-T fluorescence, mean of three wells (compound at 10, reading M55 of time course): 2.573 | Th-T fluorescence, mean of three wells (compound at 10, reading M56 of time course): 2.561 | Th-T fluorescence, mean of three wells (compound at 10, reading M57 of time course): 2.58 | Th-T fluorescence, mean of three wells (compound at 10, reading M58 of time course): 2.605 | Th-T fluorescence, mean of three wells (compound at 10, reading M59 of time course): 2.634 | Th-T fluorescence, mean of three wells (compound at 10, reading M60 of time course): 2.6643 | Th-T fluorescence, mean of three wells (compound at 10, reading M61 of time course): 2.702 | Th-T fluorescence, mean of three wells (compound at 10, reading M62 of time course): 2.713 | Th-T fluorescence, mean of three wells (compound at 20, reading M41 of time course): 2.067 | Th-T fluorescence, mean of three wells (compound at 20, reading M42 of time course): 2.077 | Th-T fluorescence, mean of three wells (compound at 20, reading M43 of time course): 2.068 | Th-T fluorescence, mean of three wells (compound at 20, reading M44 of time course): 2.111 | Th-T fluorescence, mean of three wells (compound at 20, reading M45 of time course): 2.074 | Th-T fluorescence, mean of three wells (compound at 20, reading M46 of time course): 2.138 | Th-T fluorescence, mean of three wells (compound at 20, reading M47 of time course): 2.131 | Th-T fluorescence, mean of three wells (compound at 20, reading M48 of time course): 2.161 | Th-T fluorescence, mean of three wells (compound at 20, reading M49 of time course): 2.157 | Th-T fluorescence, mean of three wells (compound at 20, reading M50 of time course): 2.15 | Th-T fluorescence, mean of three wells (compound at 20, reading M51 of time course): 2.157 | Th-T fluorescence, mean of three wells (compound at 20, reading M52 of time course): 2.143 | Th-T fluorescence, mean of three wells (compound at 20, reading M53 of time course): 2.161 | Th-T fluorescence, mean of three wells (compound at 20, reading M54 of time course): 2.178 | Th-T fluorescence, mean of three wells (compound at 20, reading M55 of time course): 2.1338 | Th-T fluorescence, mean of three wells (compound at 20, reading M56 of time course): 2.09 | Th-T fluorescence, mean of three wells (compound at 20, reading M57 of time course): 2.136 | Th-T fluorescence, mean of three wells (compound at 20, reading M58 of time course): 2.093 | Th-T fluorescence, mean of three wells (compound at 20, reading M59 of time course): 2.054 | Th-T fluorescence, mean of three wells (compound at 20, reading M60 of time course): 2.083 | Th-T fluorescence, mean of three wells (compound at 20, reading M61 of time course): 2.064 | Th-T fluorescence, mean of three wells (compound at 20, reading M62 of time course): 2.104 | Th-T fluorescence, mean of three wells (compound at 50, reading M41 of time course): 4.082 | Th-T fluorescence, mean of three wells (compound at 50, reading M42 of time course): 4.376 | Th-T fluorescence, mean of three wells (compound at 50, reading M43 of time course): 4.613 | Th-T fluorescence, mean of three wells (compound at 50, reading M44 of time course): 4.79 | Th-T fluorescence, mean of three wells (compound at 50, reading M45 of time course): 4.938 | Th-T fluorescence, mean of three wells (compound at 50, reading M46 of time course): 5.058 | Th-T fluorescence, mean of three wells (compound at 50, reading M47 of time course): 5.101 | Th-T fluorescence, mean of three wells (compound at 50, reading M48 of time course): 5.128 | Th-T fluorescence, mean of three wells (compound at 50, reading M49 of time course): 5.105 | Th-T fluorescence, mean of three wells (compound at 50, reading M50 of time course): 5.093 | Th-T fluorescence, mean of three wells (compound at 50, reading M51 of time course): 4.998 | Th-T fluorescence, mean of three wells (compound at 50, reading M52 of time course): 4.942 | Th-T fluorescence, mean of three wells (compound at 50, reading M53 of time course): 4.822
